Laboratory results: patent US20110195111A1, “AQUEOUS COMPOSITIONS AND METHODS” (NATIVIS, INC., priority 2009, published 2011)

Test system: U-87 glioblastoma cells
Experiment: U-87 glioblastoma flank tumor growth in mice
Format: in vivo
Conditions: U-87 flank tumors in mice, 24-day period; untreated about 650 mm^3 (FIG. 11)
Protocol: The ability of water exposed to a taxane signal to inhibit a glioblastoma tumor in an animal model was investigated. In this study, nine groups of 8 mice were each injected in the right flank with 7.355×10^6 U-87 glioblastoma cells, and treatment with the various modalities was begun either one day after inoculating the animals with the cells, or when the tumors reached 75-100 mm^3.
Paclitaxel was initially dissolved in a 1:1 v/v mixture of CremaphorEL and ethanol and stored at 4° C. Final dilution of the drug to a concentration of 1.5 mg/ml was made with 0.9% NaCl immediately before use. In Groups 3 and 4, the paclitaxel was administered by intravenous injection into the tail vein at a dose of 15/mg/kg animal weight on each of five consecutive days. The actual volume administered to each animal was about 0.2 ml of the above paclitaxel formulation.
Animals in Groups 5 and 6 received 20 ml/kg (or about 0.5 ml) of water exposed to taxane signal prepared as described in Section VII, with the Range 1 magnetic field. […]
For all groups, tumor volumes were measured every other day by serial caliper measurements to determine tumor width and length, and calculating an approximate tumor volume from the formula: Tumor volume=(length×width^2)/2.

Question: How did the “increase in tumor volume over the study period, untreated versus treated animals” value turn out when CC(=O)O[C@H]1C(=O)[C@@]2(C)[C@H]([C@H](OC(=O)c3ccccc3)[C@]3(O)C[C@H](OC(=O)[C@H](O)[C@@H](NC(=O)c4ccccc4)c4ccccc4)C(C)=C1C3(C)C)[C@]1(OC(C)=O)CO[C@@H]1C[C@@H]2O [paclitaxel] was run?
Answer: The value was “more than twice as high in untreated”.
